Measurements: ChEMBL document CHEMBL4359841, “Late-Stage Functionalization of Platensimycin Leading to Multiple Analogues with Improved Antibacterial Activity in Vitro and in Vivo” (2019)
≈ marks a conversion by molar mass, not a printed value. Calls of active or inactive are those of the source.

What was measured:
Staphylococcus aureus [1] = experiment: Inhibition of FabB/FabF in methicillin-sensitive Staphylococcus aureus assessed as antibacterial activity after 16 hrs by agar dilution method
Staphylococcus aureus [2] = experiment: Antibacterial activity against methicillin-resistant Staphylococcus aureus infected in C57BL/6J mouse model of peritonitis assessed as mouse survival at 20 mg/kg, ip dosed at 1 hr and 5 hrs post infection and measured for 7 days relative to control; type: functional
Staphylococcus aureus [3] = experiment: Inhibition of FabB/FabF in methicillin-resistant Staphylococcus aureus assessed as antibacterial activity after 16 hrs by agar dilution method
Staphylococcus aureus [4] = experiment: Antibacterial activity against methicillin-resistant Staphylococcus aureus infected in C57BL/6J mouse model of peritonitis assessed as mouse survival at 10 mg/kg, ip dosed at 1 hr and 5 hrs post infection and measured for 7 days relative to control; type: functional
Staphylococcus aureus [5] = experiment: Inhibition of FabB/FabF in methicillin-resistant Staphylococcus aureus assessed as antibacterial activity at 5 ug/disk after 18 hrs by agar disk diffusion method
Staphylococcus aureus [6] = experiment: Inhibition of FabB/FabF in Staphylococcus aureus ATCC 29213 assessed as antibacterial activity after 16 hrs by agar dilution method
Staphylococcus aureus [7] = experiment: Inhibition of FabB/FabF in methicillin-resistant Staphylococcus aureus assessed as antibacterial activity at 2 ug/disk after 18 hrs by agar disk diffusion method
Staphylococcus aureus [8] = experiment: Antibacterial activity against methicillin-resistant Staphylococcus aureus infected in BALB/c mouse model of skin wound assessed as reduction in detachment of epidermis from dermis at 2 mg administered topically as ointment twice daily for 7 days and measured after 24 hrs by visual inspection method; type: functional, organism-based
Staphylococcus aureus [9] = experiment: Antibacterial activity against methicillin-resistant Staphylococcus aureus infected in BALB/c mouse model of skin wound assessed as reduction in appearance of secondary scald at 2 mg administered topically as ointment twice daily for 7 days and measured after 24 hrs by visual inspection method; type: functional, organism-based
Staphylococcus aureus [10] = experiment: Antibacterial activity against methicillin-resistant Staphylococcus aureus infected in BALB/c mouse model of skin wound assessed as retainment of dermis layers at 2 mg administered topically as ointment twice daily for 7 days and measured and after 24 hrs by HE staining analysis; type: functional, organism-based
Staphylococcus aureus [11] = experiment: Antibacterial activity against methicillin-resistant Staphylococcus aureus infected in BALB/c mouse model of skin infection assessed as bacterial load in skin lesions at 2 mg administered topically as ointment twice daily for 7 days and measured at 24 hrs post last dose (7.9 +/- 0.9 x 10^8 CFU/g); type: functional
Staphylococcus aureus [12] = experiment: Antibacterial activity against methicillin-resistant Staphylococcus aureus infected in BALB/c mouse model of skin wound assessed as retainment of fat layers at 2 mg administered topically as ointment twice daily for 7 days and measured after 24 hrs by HE staining analysis; type: functional, organism-based

Compound | MIC (Staphylococcus aureus [1]) [µg/mL] | MIC (Staphylococcus aureus [3]) [µg/mL] | antibacterial activity (disk diffusion, qualitative) (Staphylococcus aureus [5]) | MIC (Staphylococcus aureus [6]) [µg/mL] | also measured
C[C@]12C[C@@]34C=C(SCc5ccccc5)C(=O)[C@@](C)(CCC(=O)Nc5c(O)ccc(C(=O)O)c5O)[C@@H]3[C@H](C[C@@H]1C4)O2 | 0.5 (≈ 0.887 µM) | 0.5 (≈ 0.887 µM) | Active | 0.5 (≈ 0.887 µM) | survival at 20 mg/kg (Staphylococcus aureus [2]): 80%; survival at 10 mg/kg (Staphylococcus aureus [4]): > 60%
Cc1ccc(SC2=C[C@]34C[C@H]5C[C@H](O[C@@]5(C)C3)[C@H]4[C@](C)(CCC(=O)Nc3c(O)ccc(C(=O)O)c3O)C2=O)cc1 | 0.25 (≈ 0.444 µM) | 0.25 (≈ 0.444 µM) | Active | 0.5 (≈ 0.887 µM) | survival at 20 mg/kg (Staphylococcus aureus [2]): 80%; survival at 10 mg/kg (Staphylococcus aureus [4]): > 60%; inhibition (Staphylococcus aureus [7]): Active
C[C@]12C[C@]34C[C@H]1C[C@H](O2)[C@H]3[C@](C)(CCC(=O)Nc1c(O)ccc(C(=O)O)c1O)C(=O)[C@@H]1O[C@@H]14 | 16 (≈ 35 µM) | 16 (≈ 35 µM) |  | 32 (≈ 69.9 µM) | 
CCCSC1=C[C@]23C[C@H]4C[C@H](O[C@@]4(C)C2)[C@H]3[C@](C)(CCC(=O)Nc2c(O)ccc(C(=O)O)c2O)C1=O | 0.5 (≈ 0.97 µM) | 0.5 (≈ 0.97 µM) | Active | 1 (≈ 1.94 µM) | 
C[C@]12C[C@@]34C=C(Sc5ccccn5)C(=O)[C@@](C)(CCC(=O)Nc5c(O)ccc(C(=O)O)c5O)[C@@H]3[C@H](C[C@@H]1C4)O2 | 2 (≈ 3.63 µM) | 2 (≈ 3.63 µM) | Active | 2 (≈ 3.63 µM) | Survival (Staphylococcus aureus [4]): inactive
C/C(=C\C(=O)OCCCCCCCCC(=O)O)C[C@@H]1OC[C@H](C[C@@H]2O[C@H]2[C@@H](C)[C@H](C)O)[C@@H](O)[C@H]1O [MUPIROCIN] |  |  |  |  | Activity (Staphylococcus aureus [8]): Active; Activity (Staphylococcus aureus [9]): Active; Activity (Staphylococcus aureus [10]): Active; Activity (Staphylococcus aureus [11]): 6.5 ×10⁶ CFU/g; Activity (Staphylococcus aureus [12]): Active
CC(=O)NC[C@H]1CN(c2ccc(N3CCOCC3)c(F)c2)C(=O)O1 | 1 (≈ 2.96 µM) | 1 (≈ 2.96 µM) | Active | 1 (≈ 2.96 µM) | 
C[C@]12C[C@@]34C=C(Sc5cccc(C#CC6(O)CCCCC6)c5)C(=O)[C@@](C)(CCC(=O)Nc5c(O)ccc(C(=O)O)c5O)[C@@H]3[C@H](C[C@@H]1C4)O2 | 0.25 (≈ 0.372 µM) | 0.25 (≈ 0.372 µM) | Active | 0.25 (≈ 0.372 µM) | 
C[C@]12C[C@@]34C=C(Sc5cccc(-c6cccnc6)c5)C(=O)[C@@](C)(CCC(=O)Nc5c(O)ccc(C(=O)O)c5O)[C@@H]3[C@H](C[C@@H]1C4)O2 |  |  | Active |  | 
C[C@]12C[C@@]34C=C(Sc5cccc6ccccc56)C(=O)[C@@](C)(CCC(=O)Nc5c(O)ccc(C(=O)O)c5O)[C@@H]3[C@H](C[C@@H]1C4)O2 |  |  | Active |  | 
C[C@]12C[C@@]34C=C(Sc5cccc(-c6ccccc6F)c5)C(=O)[C@@](C)(CCC(=O)Nc5c(O)ccc(C(=O)O)c5O)[C@@H]3[C@H](C[C@@H]1C4)O2 |  |  | Active |  | 
COc1ccc(SC2=C[C@]34C[C@H]5C[C@H](O[C@@]5(C)C3)[C@H]4[C@](C)(CCC(=O)Nc3c(O)ccc(C(=O)O)c3O)C2=O)cc1 |  |  | Active |  | 
C[C@]12C[C@@]34C=C(Sc5cccc(C#Cc6ccccn6)c5)C(=O)[C@@](C)(CCC(=O)Nc5c(O)ccc(C(=O)O)c5O)[C@@H]3[C@H](C[C@@H]1C4)O2 | 0.5 (≈ 0.768 µM) | 0.5 (≈ 0.768 µM) | Active | 0.5 (≈ 0.768 µM) | 
C[C@]12C[C@@]34C=C(Sc5ccc(I)cc5)C(=O)[C@@](C)(CCC(=O)Nc5c(O)ccc(C(=O)O)c5O)[C@@H]3[C@H](C[C@@H]1C4)O2 | 0.25 (≈ 0.37 µM) | 0.25 (≈ 0.37 µM) | Active | 0.5 (≈ 0.74 µM) | 
C[C@]12C[C@@]34C=C(Sc5ccc(F)cc5)C(=O)[C@@](C)(CCC(=O)Nc5c(O)ccc(C(=O)O)c5O)[C@@H]3[C@H](C[C@@H]1C4)O2 | 0.5 (≈ 0.881 µM) | 0.5 (≈ 0.881 µM) | Active | 1 (≈ 1.76 µM) | 
CC(C)(C)NC(=O)/C=C/c1ccc(SC2=C[C@]34C[C@H]5C[C@H](O[C@@]5(C)C3)[C@H]4[C@](C)(CCC(=O)Nc3c(O)ccc(C(=O)O)c3O)C2=O)cc1 |  |  | Active |  | 
C[C@]12C[C@@]34C=C(Sc5cccc(I)c5)C(=O)[C@@](C)(CCC(=O)Nc5c(O)ccc(C(=O)O)c5O)[C@@H]3[C@H](C[C@@H]1C4)O2 | 0.5 (≈ 0.74 µM) | 0.5 (≈ 0.74 µM) | Active | 1 (≈ 1.48 µM) | 
CN(C)C(=O)/C=C/c1cccc(SC2=C[C@]34C[C@H]5C[C@H](O[C@@]5(C)C3)[C@H]4[C@](C)(CCC(=O)Nc3c(O)ccc(C(=O)O)c3O)C2=O)c1 |  |  | Active |  | 
C[C@]12C[C@@]34C=C(Sc5cccc(C#Cc6cccc(F)c6)c5)C(=O)[C@@](C)(CCC(=O)Nc5c(O)ccc(C(=O)O)c5O)[C@@H]3[C@H](C[C@@H]1C4)O2 |  |  | Active |  | 
C[C@]12C[C@@]34C=C(Sc5cccs5)C(=O)[C@@](C)(CCC(=O)Nc5c(O)ccc(C(=O)O)c5O)[C@@H]3[C@H](C[C@@H]1C4)O2 |  |  | Active |  | 
C[C@]12C[C@@]34C=C(Sc5ccc(C(=O)O)cc5)C(=O)[C@@](C)(CCC(=O)Nc5c(O)ccc(C(=O)O)c5O)[C@@H]3[C@H](C[C@@H]1C4)O2 |  |  | Active |  | 
C[C@]12C[C@@]34C=C(Sc5cccc(/C=C/C(=O)OCCO)c5)C(=O)[C@@](C)(CCC(=O)Nc5c(O)ccc(C(=O)O)c5O)[C@@H]3[C@H](C[C@@H]1C4)O2 |  |  | Active |  | 
C[C@]12C[C@@]34C=C(Sc5cccc(-c6ccccc6)c5)C(=O)[C@@](C)(CCC(=O)Nc5c(O)ccc(C(=O)O)c5O)[C@@H]3[C@H](C[C@@H]1C4)O2 |  |  | Active |  | 
